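Test compounds were applied to cells in 96-well plates for 48 hours at 5 doses. GI50: concentration for 50% inhibition of growth.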 Activity calls are given as the source filed them. Rule as the data show it: active = GI50 up to about 1.1 µM and inactive = higher.
Columns and labels:
Test in all cases: DTP human tumour cell line panel, 48 h
[1] = test system: HOP-62
[2] = test system: A498
[3] = test system: EKVX
[4] = test system: IGROV-1
[5] = test system: KM12
[6] = test system: SK-MEL-2
[7] = test system: DMS-114
[8] = test system: UACC-257
[9] = test system: LOX IMVI
[10] = test system: HL-60
[11] = test system: UO-31
[12] = test system: 786-0
[13] = test system: SW-620
[14] = test system: SF-539
[15] = test system: COLO 205
[16] = test system: SN12C
[17] = test system: HOP-92
[18] = test system: Malme-3M
[19] = test system: SNB-19
[20] = test system: XF498
[21] = test system: CCRF-CEM
[22] = test system: HCC 2998
[23] = test system: NCI-H522
[24] = test system: HCT-116
[25] = test system: CAKI-1
[26] = test system: RPMI-8226
[27] = test system: RXF 393
[28] = test system: U-251
[29] = test system: SF-268
[30] = test system: NCI-H23
[31] = test system: HT-29
[32] = test system: A549
[33] = test system: SNB-75
[34] = test system: OVCAR-8
[35] = test system: SNB-78
[36] = test system: KM-20L2
[37] = test system: SK-OV-3
[38] = test system: M14
[39] = test system: SK-MEL-5
[40] = test system: NCI-H226
[41] = test system: OVCAR-3
[42] = test system: M19-MEL
[43] = test system: OVCAR-5
[44] = test system: ACHN
[45] = test system: SF-295
[46] = test system: NCI-H460
[47] = test system: MOLT-4
[48] = test system: OVCAR-4
[49] = test system: TK-10
[50] = test system: DLD-1
[51] = test system: K562
[52] = test system: SK-MEL-28
[53] = test system: LXFL 529
[54] = test system: HCT-15
[55] = test system: HOP-18
[56] = test system: UACC-62
[57] = test system: SR

COc1ccccc1NC(=O)C1=C(C)NC(C)=C(C(=O)Nc2ccccc2OC)C1c1ccc(N(C)C)cc1
GI50 [1]: 22.3 µM (inactive)
GI50 [2]: 32.8 µM (inactive)
GI50 [3]: 27.4 µM (inactive)
GI50 [4]: 33.4 µM (inactive)
GI50 [5]: 21.6 µM (inactive)
GI50 [6]: 19.7 µM (inactive)
GI50 [7]: 21.8 µM (inactive)
GI50 [8]: 27.9 µM (inactive)
GI50 [9]: 15.4 µM (inactive)
GI50 [10]: 15.8 µM (inactive)
GI50 [11]: 36 µM (inactive)
GI50 [12]: 33.8 µM (inactive)
GI50 [13]: 36.3 µM (inactive)
GI50 [14]: 37.5 µM (inactive)
GI50 [15]: 31 µM (inactive)
GI50 [16]: 26.9 µM (inactive)
GI50 [17]: 6.52 µM (inactive)
GI50 [18]: 36.1 µM (inactive)
GI50 [19]: 55.8 µM (inactive)
GI50 [20]: 12.1 µM (inactive)
GI50 [21]: 19.3 µM (inactive)
GI50 [22]: 14.5 µM (inactive)
GI50 [23]: 17.6 µM (inactive)
GI50 [24]: 25.4 µM (inactive)
GI50 [25]: 23.2 µM (inactive)
GI50 [26]: 16.6 µM (inactive)
GI50 [27]: 21.7 µM (inactive)
GI50 [28]: 30.4 µM (inactive)
GI50 [29]: 24.5 µM (inactive)
GI50 [30]: 21.3 µM (inactive)
GI50 [31]: 45.4 µM (inactive)
GI50 [32]: 42.6 µM (inactive)
GI50 [33]: 30.8 µM (inactive)
GI50 [34]: 24 µM (inactive)
GI50 [35]: 27.1 µM (inactive)
GI50 [36]: 23.7 µM (inactive)
GI50 [37]: 38.7 µM (inactive)
GI50 [38]: 22.5 µM (inactive)
GI50 [39]: 30.8 µM (inactive)
GI50 [40]: 19.6 µM (inactive)
GI50 [41]: 19.1 µM (inactive)
GI50 [42]: 31.5 µM (inactive)
GI50 [43]: 39.2 µM (inactive)
GI50 [44]: 33 µM (inactive)
GI50 [45]: 38 µM (inactive)
GI50 [46]: 27.5 µM (inactive)
GI50 [47]: 18.8 µM (inactive)
GI50 [48]: 29.6 µM (inactive)
GI50 [49]: 34.8 µM (inactive)
GI50 [50]: 17.9 µM (inactive)
GI50 [51]: 18.9 µM (inactive)
GI50 [52]: 22.6 µM (inactive)
GI50 [53]: 25.4 µM (inactive)

CC1(C)COC(C23C4C5C2C2C3C4C52I)=N1 (centres undefined)
GI50 [1]: > 100 µM (inactive)
GI50 [2]: > 100 µM (inactive)
GI50 [54]: > 100 µM
GI50 [3]: > 100 µM (inactive)
GI50 [4]: > 100 µM (inactive)
GI50 [7]: > 100 µM (inactive)
GI50 [8]: > 100 µM (inactive)
GI50 [11]: > 100 µM (inactive)
GI50 [12]: > 100 µM (inactive)
GI50 [55]: > 100 µM (inactive)
GI50 [13]: > 100 µM (inactive)
GI50 [14]: > 100 µM (inactive)
GI50 [56]: > 100 µM (inactive)
GI50 [15]: > 100 µM (inactive)
GI50 [16]: > 100 µM (inactive)
GI50 [17]: > 100 µM (inactive)
GI50 [18]: > 100 µM (inactive)
GI50 [19]: > 100 µM (inactive)
GI50 [20]: > 100 µM (inactive)
GI50 [21]: > 100 µM (inactive)
GI50 [22]: > 100 µM (inactive)
GI50 [25]: 50.4 µM (inactive)
GI50 [26]: > 100 µM (inactive)
GI50 [27]: > 100 µM (inactive)
GI50 [28]: > 100 µM (inactive)
GI50 [29]: > 100 µM (inactive)
GI50 [30]: > 100 µM (inactive)
GI50 [31]: > 100 µM (inactive)
GI50 [32]: > 100 µM (inactive)
GI50 [34]: > 100 µM (inactive)
GI50 [35]: > 100 µM (inactive)
GI50 [36]: > 100 µM (inactive)
GI50 [37]: > 100 µM (inactive)
GI50 [38]: > 100 µM (inactive)
GI50 [39]: > 100 µM (inactive)
GI50 [40]: > 100 µM (inactive)
GI50 [41]: > 100 µM (inactive)
GI50 [42]: > 100 µM (inactive)
GI50 [43]: > 100 µM (inactive)
GI50 [44]: > 100 µM (inactive)
GI50 [45]: > 100 µM (inactive)
GI50 [46]: > 100 µM (inactive)
GI50 [47]: > 100 µM (inactive)
GI50 [48]: > 100 µM (inactive)
GI50 [49]: > 100 µM (inactive)
GI50 [50]: > 100 µM (inactive)
GI50 [51]: > 100 µM (inactive)
GI50 [52]: > 100 µM (inactive)
GI50 [53]: > 100 µM (inactive)

COC(=O)C1=CO[C@@H](OC2CC(CO)C(O)C(O)C2O)[C@@H]2[C@@H](C)[C@@H](OC(=O)/C=C/c3ccccc3)[C@@H](O)[C@H]12.COC(=O)C1=CO[C@@H](OC2CC(CO)C(O)C(O)C2O)[C@@H]2[C@@H](C)[C@@H](OC(=O)c3ccccc3)[C@@H](O)[C@H]12 (some centres undefined)
GI50 [1]: > 100 µM (inactive)
GI50 [2]: > 100 µM (inactive)
GI50 [3]: > 100 µM (inactive)
GI50 [4]: > 100 µM (inactive)
GI50 [5]: > 100 µM (inactive)
GI50 [7]: > 100 µM (inactive)
GI50 [8]: > 100 µM (inactive)
GI50 [9]: > 100 µM (inactive)
GI50 [10]: > 100 µM (inactive)
GI50 [11]: > 100 µM (inactive)
GI50 [12]: > 100 µM (inactive)
GI50 [55]: > 100 µM (inactive)
GI50 [13]: > 100 µM (inactive)
GI50 [14]: > 100 µM (inactive)
GI50 [57]: 66.7 µM (inactive)
GI50 [56]: > 100 µM (inactive)
GI50 [15]: > 100 µM (inactive)
GI50 [16]: > 100 µM (inactive)
GI50 [17]: > 100 µM (inactive)
GI50 [18]: > 100 µM (inactive)
GI50 [19]: 10 µM (inactive)
GI50 [20]: > 100 µM (inactive)
GI50 [21]: > 100 µM (inactive)
GI50 [22]: > 100 µM (inactive)
GI50 [23]: > 100 µM (inactive)
GI50 [24]: > 100 µM (inactive)
GI50 [25]: > 100 µM (inactive)
GI50 [26]: > 100 µM (inactive)
GI50 [28]: > 100 µM (inactive)
GI50 [29]: > 100 µM (inactive)
GI50 [30]: > 100 µM (inactive)
GI50 [31]: > 100 µM (inactive)
GI50 [32]: > 100 µM (inactive)
GI50 [33]: > 100 µM (inactive)
GI50 [34]: > 100 µM (inactive)
GI50 [36]: > 100 µM (inactive)
GI50 [37]: > 100 µM (inactive)
GI50 [38]: > 100 µM (inactive)
GI50 [39]: > 100 µM (inactive)
GI50 [40]: > 100 µM (inactive)
GI50 [41]: > 100 µM (inactive)
GI50 [42]: > 100 µM (inactive)
GI50 [43]: > 100 µM (inactive)
GI50 [44]: > 100 µM (inactive)
GI50 [45]: > 100 µM (inactive)
GI50 [47]: > 100 µM (inactive)
GI50 [48]: > 100 µM (inactive)
GI50 [49]: > 100 µM (inactive)
GI50 [50]: > 100 µM (inactive)
GI50 [51]: > 100 µM (inactive)
GI50 [52]: > 100 µM (inactive)
GI50 [53]: > 100 µM (inactive)
